Data: patent US20260083751A1, “ALLOSTERIC MODULATORS OF ANDROGEN RECEPTOR COACTIVATOR RECRUITMENT FOR CRPC THERAPY” (University of Pittsburgh – Of the Commonwealth System of …, priority 2022, published 2026)
Entries after “also recorded” stand apart in the source; their conditions may differ. Values belong to the compound of their own block, whether it stands above or below them.

Key:
[1] = test system: PSA expression in C4-2 cells; assay: Western blot of PSA expression in C4-2 cells; assay type: cell-based; details: C4-2 cells, hits 20 μM (enzalutamide 25 μM) 3 h, ±10 nM DHT 24 h
Protocol: Cell lysate protein concentrations were determined in a bicinchoninic acid (BCA) assay. Equal amounts of cell protein were mixed with SDS-PAGE sample buffer and placed in a heat block at 100° C. for 5 min. The protein constituents of C4-2 cells were separated by SDS-PAGE on 10% separating gels, transferred to nitrocellulose membranes and western blots were probed overnight at 4° C. with a 1:1000 dilution of a rabbit anti-hPSA (Cell Signaling, Danvers, MA) primary antibody in Tris-buffered saline (TBS) Tween 20 (TBST) containing 5% non-fat milk. Membranes were washed 3× in TBST for 10 min, then incubated for 1 h at room temperature with a 1:10,000 dilution of the goat anti-rabbit IgG horse radish peroxidase (HRP) conjugated secondary antibody (Invitrogen, Carlsbad, CA) in TBST containing 5% non-fat milk. Western blots were then washed 3× in TBST and developed with Pierce enhanced chemiluminescence (ECL) western blotting substrate (Thermo Fisher Scientific, Waltham, MA). Images of western blot ECL bands were acquired on an iBright™ 1500 imaging system (Thermo Fisher Scientific, Waltham, MA) and quantified by iBright™ image analysis software.

AR-TIF2 PPI = target: T1, AR-TIF2 PPI (Homo sapiens, UniProt P10275); assay: AR-TIF2 PPIB assay, both formats stated jointly; assay type: cell-based; details: for IC50: both assay formats, read-out: AR-TIF2 PPI inhibitor/disruptor IC50s; for Fold reduction in relative potency in both AR-TIF2 PPIB assay formats: analog versus its parent hit
T1 construct: AR-LBD residues (662-919) were incorporated into one biosensor; expressed in transfected cells; host or cells: U-2 OS osteosarcoma cells, coinfected with recombinant adenoviruses
T1 sequence (P10275 662-919): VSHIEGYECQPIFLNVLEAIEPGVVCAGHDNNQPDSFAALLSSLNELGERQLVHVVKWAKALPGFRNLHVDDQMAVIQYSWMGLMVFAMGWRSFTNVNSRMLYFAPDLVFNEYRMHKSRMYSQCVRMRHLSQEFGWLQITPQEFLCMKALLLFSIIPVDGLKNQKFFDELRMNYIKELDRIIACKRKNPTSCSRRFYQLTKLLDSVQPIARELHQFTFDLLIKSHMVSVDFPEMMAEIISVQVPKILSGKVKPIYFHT
Protocol: AR-TIF2 Protein-Protein Interaction Biosensor Assay: The AR-TIF2 PPIB HCS assay was performed in U-2 OS osteosarcoma cells as described previously (Fancher et al., Assay Drug Dev Technol. 2016, 14:453-477; Fancher et al., Assay Drug Dev Technol. 2018, 16:297-319; Hua et al., Assay Drug Dev Technol. 2014, 12:395-418; Hua et al., Methods Mol Biol. 2018, 1683:211-227). Briefly, U-2 OS cells were coinfected with recombinant adenovirus biosensor expression constructs and seeded at 2,500 cells per well in 384-well collagen-coated microplates (Greiner Bio-One #781956) and plates were incubated overnight at 37° C. in 5% CO2 and 95% humidity. […] After the appropriate time, assay plates were fixed by transfer of 50 μL of pre-warmed (37° C.) 7.4% formaldehyde and 2 μg/mL Hoechst 33342 in PBS and incubation at room temperature for 30 minutes. Liquid was aspirated, plates were washed twice with 85 μL PBS, leaving the final wash in the plate. Plates were sealed with adhesive aluminum plate seals, and fluorescent images of three fields of view were acquired in the DAPI (Hoechst stained nuclei), FITC (TIF2-GFP) and Texas Red (AR-RFP) channels on an ImageXpress® Micro (IXM) automated HCS platform (Molecular Devices LLC, Sunnyvale, CA) using a 10× Plan Fluor 0.3 NA objective. Images were analyzed using the Translocation Enhanced (TE) image analysis module of the MetaXpress® software (Molecular Devices, LLC, San Jose, CA) as described previously (Fancher et al., Assay Drug Dev Technol. 2016, 14:453-477; Fancher et al., Assay Drug Dev Technol. 2018, 16:297-319; Hua et al., Assay Drug Dev Technol. 2014, 12:395-418; Hua et al., Methods Mol Biol. 2018, 1683:211-227).
A positional AR-TFI2 protein-protein interaction biosensor (PPIB) assay was used to identify small molecules that inhibited DHT-induced formation of AR-TIF2 PPIs and/or disrupted pre-existing AR-TIF2 PPIs (Fancher et al., Assay Drug Dev Technol 2016, 14(8):453-477; Fancher et al., Assay Drug Dev Technol 2018, 16(6):297-319; Hua et al., Assay Drug Dev Technol 2014, 12:395-418; Hua et al., Methods Mol biol 2018, 1683:211-227). AR-LBD residues (662-919) were incorporated into one biosensor and TIF2 residues (725-840) containing the 3rd NR box LXXLL motif into the second interacting biosensor partner (Id.) The AR-TIF2 PPIB recapitulates the orthosteric ligand (OSL)-induced translocation of AR from the cytoplasm into the nucleus where PPIs with TIF2 result in colocalization of both biosensors in the nucleolus. Using three libraries, a total of 143,535 compounds were screened—a 10,000-compound ChemDiv PPI focused diversity library, a 50,000-compound ChemBridge diversity library, and a 83,535-compound library provided by the NCI's Chemical Biology Consortium. The 10K and 50K diversity libraries were subsets of 142K and 810K parent libraries, enabling screening of a representative subset of >1×10^6 compounds. AR-TIF2 PPI inhibitor and disruptor actives were confirmed in the HCS assay and counter screens designed to identify and exclude nuisance/interference or non-selective compounds (Fancher et al., Assay Drug Dev Technol 2018, 16(6):297-319). […] An AR-GFP subcellular localization assay was used to exclude compounds that reduced AR expression and/or restricted its localization to the cytoplasm (Fancher et al., Assay Drug Dev Technol 2018, 16(6):297-319; Johnston et al., Assay Drug Dev Technol 2016, 14:226-239; Masodi et al., Mol Cancer Ther 2017, 16(10):2120-2129). Hits were structurally classified, clustered, and medicinal chemistry computational filters (PAINS/REOS) were used to exclude nuisance compounds and evaluate drug-like properties (Baell, J Med Chem 2010, 53(7):2719-2740; Baell, ACS Chem. Biol. 2018, 13:36-44; Johnston, Curr Opin Chem Biol 2011, 15:174-182; Walters, Adv Drug Deliv Rev 2002, 54:255-271). […]

Compound: Cc1ccccc1-c1cc(O)c2c(c1)CN(c1nc(C(N)=O)cs1)CCO2 [Compound S1-1]
Endogenous and DHT-enhanced PSA expression [1]: substantially reduced; also recorded: inhibition

Compound: Cc1c(-c2ccccc2F)[nH]c2ccc(CNC(=O)CCc3cn[nH]c3)cc12 [Compound S3-11]
Endogenous and DHT-enhanced PSA expression [1]: substantially reduced; also recorded: inhibition

Compound: Cc1nsc(NC(=O)N2CCC(Cn3ccnc3)CC2)n1 [Compound S2-7]
IC50 (AR-TIF2 PPI): > 100 µM

Compound: Cc1nsc(NC(=O)N2CCC(Sc3ccccc3C)CC2)n1 [Compound S2-6]
Endogenous and DHT-enhanced PSA expression [1]: substantially reduced; also recorded: inhibition

Other lines, results leading:

IC50 (AR-TIF2 PPI): > 100 µM
Compound: Cc1ccccc1-c1cc(O)c2c(c1)CN(c1cc(N)ncn1)CCO2 [Compound S1-4]

Fold reduction in relative potency in both AR-TIF2 PPIB assay formats (AR-TIF2 PPI): ~2 fold
Compound: Cc1nc(N)cc(N2CCOc3c(O)cc(-c4ccccc4C)cc3C2)n1 [Compound S1-2]

Fold reduction in relative potency in both AR-TIF2 PPIB assay formats (AR-TIF2 PPI): 4 fold
Compound: COc1cc(-c2ccc(C)s2)cc2c1OCCN(c1nc(C(N)=O)cs1)C2 [Compound S1-5]

Fold reduction in relative potency in both AR-TIF2 PPIB assay formats (AR-TIF2 PPI): ~2 fold
Compound: Cc1c(-c2ccc(F)cc2)[nH]c2ccc(CNC(=O)c3ccc(CO)o3)cc12 [Compound S3-15]
